The conditions of this data set: for nicotine content in hair: smoker, three 6 cm hairs (about 0.9 mg). The protocol:
Three 60 mm hairs (about 0.9 mg) were put in a stainless injection needle (inner diameter of 0.5 mm, outer diameter of 0.7 mm, the tip conical part length of 2 mm, the container part length of 80 mm, and one aperture of 0.4 mm in diameter in the lateral side of the end of the container). A syringe was fixed to the needle and methanol, dichloromethane and methanol each one ml were run in this order through the needle to wash the hairs.
Then, the needle was inserted into an injector (at 300° C.) of a gas chromatograph (Agilent, HP-6890) and held for 15 seconds. Then, dichloromethane (25 μL) was injected for desorption and a carrier gas was run. The chromatography was conducted under the following conditions. • Column diameter: 0.25 mm • Column length: 25 m • Column stationary phase: dimethylpolysiloxane (HR-1) • Column temperature: 50° C. to 300° C. (temperature rising: 5° C./min) • Carrier gas: helium • Carrier gas flow: 0.9 ml/min • Split ratio: 25:1 • Detector: MS (Agilent, HP-5972)
Three 6 cm hairs (about 0.9 mg) were used for the analysis.

Like-named read-outs stand apart in the source and are kept apart here.

In the case of `CN1CCCC1c1cccnc1` (stereo not shown) [nicotine], for the setting “hair of smoker, three 60 mm hairs (about 0.9 mg), GC-MS”, the “nicotine detection in hair” value is recorded as “clearly detected”. For the same compound, the “nicotine content in hair” value is recorded as 11.5 ng/mg (10 cigarettes per day, tobacco brand B (nominal nicotine 0.7 mg)); 8.2 ng/mg (15 cigarettes per day, tobacco brand E (nominal nicotine 0.8 mg)); 13.0 ng/mg (15 cigarettes per day, tobacco brand F (nominal nicotine 0.1 mg)); 12.1 ng/mg (20 cigarettes per day, tobacco brand A (nominal nicotine 1.2 mg)); 30.5 ng/mg (20 cigarettes per day, tobacco brand D (nominal nicotine 0.1 mg)); 55.3 ng/mg (30 cigarettes per day, tobacco brand C (nominal nicotine 0.4 mg)).
